Data as given in patent US20100137344A1, “INDUCTION OF ANALGESIA IN NEUROPATHIC PAIN” (University Court of the University of Edinburgh, priority 2006, published 2010).

System: naïve rats
Test: Intrathecal application in naïve rats, behavioural reflex testing (PWL, PWT)
Type: in vivo, rat
Settings: icilin 10 nmol, (−)-menthol 200 nmol, data not shown
Experimental: Thermal sensitivity was assessed by measuring paw withdrawal latency (PWL, s) in response to a noxious thermal stimulus (Hargreaves' thermal stimulator, Linton Instrumentation, Diss, UK) directed to the hindpaw mid-plantar glabrous surface. Mechanical sensitivity was recorded as the paw withdrawal threshold (PWT, mN/mm^2) to calibrated von Frey filaments (Stoelting, Ill., US), as previously described^[39]. Sensitivity to noxious cold was assessed by placing animals in a waterbath with an aluminium floor containing 1 cm deep 4° C. water and counting the time the paw was held suspended over a 20 s period.
The following drugs were applied intrathecally in a 50 μl volume of saline-based vehicle at 37° C.: icilin (2.5-200 μM in saline with 0.2% dimethylformamide, DMF), LY 341495 (100 μM in saline), UBP 1112 (200 μM in saline), 2R,4R-APDC ((2R, 4R)-4-aminopyrrolidine-2,4-dicarboxylate), 300 μM in saline), ACPT-III ((1R,3R,4S)-1-aminocyclopentane-1,3,4-tricarboxylic acid), 3 mM in saline), AP-4, ((L-(1)-2-amino-4-phosphonobutyric acid), 3 mM in saline), naloxone (0.5 mM in saline), NMDA (75 μM in saline) and ACPC (1-aminocyclopropanecarboxylic acid, 15 μM in saline) (Tocris Cookson, Bristol, UK), (−)-menthol (1R,2S,5R-(−)-menthol, 4 mM in saline), cinnamaldehyde (1.5 mM in saline) and Ruthenium Red (5 μM in saline) (Sigma-Aldrich Co. Ltd, UK) and allicin (0.5 mM in saline with 0.5% DMF) and diallyl disulphide (DADS, 1 mM in saline with 0.5% DMF) (LKT Laboratories Inc., St Paul, Minn., USA). Drugs were injected into the L5/6 intrathecal space under brief halothane anaesthesia, using a 25-gauge needle microsyringe (BD Biosciences, Oxford, UK), as described previously^[39] in animals that were at peak levels of behavioural sensitisation. Behavioural reflex testing commenced 15 min following injection to allow recovery from anaesthesia^[40,41,42] and continued every 5 min thereafter until readings returned to baseline levels (n=6 in each case). We, and others^[40,41,42] find complete recovery from anaesthetic by 15 minutes. All appropriate controls were carried out to eliminate the possibility of effects due to vehicle or to injection procedure.
The TRPM8 channel activators, icilin and (−)-menthol were tested in CCI and naïve animals. The effects of icilin were additionally assessed in animals with CFA-induced inflammation or with lysolecithin-induced demyelination. Icilin was also co-administered with the μ-opioid receptor antagonist naloxone, the Group II metabotropic glutamate receptor (mGluR) antagonist, LY 341495, or the Group III mGluR antagonist, UBP 1112. The effects of these antagonists alone as well as effects of the Group II mGluR agonist, 2R,4R-APDC and the Group III mGluR agonists, ACPT-III and AP-4, were assessed in CCI animals. The TRPA1 channel activator, cinnamaldehyde, alone and with icilin, was tested in CCI animals and in naïve animals. Further TRPA1 channel activators, allicin and diallyl disulphide were assessed in naïve animals. Both icilin and cinnamaldehyde effects in CCI animals were also investigated in the additional presence of Ruthenium Red.

Structure (SMILES) | effect on reflex responses in naïve animals
O=C1NC(c2cccc([N+](=O)[O-])c2)=CCN1c1ccccc1O [icilin, 1-(2′-hydroxyphenyl)-4-(3″-nitrophenyl)-1,2,3,6-tetrahydropyrimidin-2-one] | without effect
CC(C)[C@@H]1CC[C@@H](C)C[C@H]1O [(−)-menthol, 1R,2S,5R-(−)-menthol] | without effect
